The record followed here is patent publication US20240390404A1, “ANTI-HUMAN NOROVIRUS AGENT” (KEIO UNIVERSITY, priority 2018, published 2024).

The subject of data set [1] is human norovirus GII. 4 strain. Put plainly: Human norovirus proliferation inhibition test by use of 6a-fucose (real-time RT-PCR of genomic RNA), GII.4 strain. The class given is cell-based. The procedure:
(§1) To a medium containing the 2D organoid, 6a-fucose was added so as to adjust a final concentration of 0 μM, 1.6 μM, 8 μM, 40 μM, and 200 μM, and culturing for differentiation induction was performed for 4 days. The culturing was performed by means of a 96-well plate in which 3 wells were dedicated for each 6a-fucose addition system, and one test plate was used for one human norovirus tested. The human norovirus tested included the GII.4 strain and GII. 6 strain. The culturing was performed in a CO2 gas incubator controlled at 37° C.
(§2) On day 4 of culturing, the medium was removed, and the plate was washed with a new medium. Subsequently, each human norovirus was added at 10^5 RNA copies to the plate for infection, and static culturing was performed for 3 hours. After completion of the infection treatment, human norovirus remaining in the medium was removed together with the medium, and the plate was washed thrice with a new medium.
(§3) After washing, 6a-fucose was added again to the new medium so as to adjust a final concentration to 0 μM, 1.6 μM, 8 μM, 40 μM, and 200 μM, and culturing was performed for 6 days.
(§4) A portion (10 μL) of the culture medium was collected from each well at three timings: (a) immediately after the addition to the new medium, (b) on day 3, and (c) on day 6. The sample was centrifuged at 10,000 g for 10 minutes, and the cell precipitate was removed. The human norovirus genomic RNA contained in the supernatant (1 μL) was quantitated through real-time RT-PCR.
(§5) In FIG. 13, the effects of use of 6a-fucose are shown with respect to (a) human norovirus GII. 4 strain and (b) human norovirus GII. 6 strain. The vertical axis in FIG. 13 represents the copy number of human norovirus genomic RNA (RNA titer), and the numeral under each bar graph represents the time of culturing from the start of the test.
Background: In qPCR the cycle at which signal appears reflects the starting amount.

The test system of data set [2] is human norovirus GII. 6 strain. Put plainly: Human norovirus proliferation inhibition test by use of 6a-fucose (real-time RT-PCR of genomic RNA), GII.6 strain. The class given is cell-based. The procedure:
as §1, §2, §3, §4, §5

Data set [3] deals with 2D organoid. Put plainly: Cytotoxicity of 6a-fucose to cultured 2D organoid (mono-layer sheet still alive). To be noted: 6a-fucose 1.6 to 200 μM, any of the tested concentrations. The class given is cell-based, human. The procedure: as §1
The subject of data set [4] is human norovirus GII. 4 strain or GII. 6 strain. The data set is described as follows: Effect of treatment with 2fp-fucose or 6a-fucose after differentiation, on infection and reinfection (RNA titer by real-time RT-PCR). The class given is cell-based. The note with it: fucose analog 200 μM added on day 5, infection on day (5+2), 3 days culturing. The procedure: (a) The 2D organoid was disseminated to a 96-well plate. After completion of differentiation induction, two fucose analogs (i.e., 2fp-fucose and 6a-fucose) were each added on day 5 to a concentration of 200 μM, to thereby provide addition groups. The results are shown in FIG. 14(a) and FIG. 14(b), respectively. A non-addition group (untreated group) was also provided. Subsequently, the medium was removed from the wells on day (5+2), and the plate was washed. Then, infection with the GII. 4 strain or the GII. 6 strain was performed.
After the infection treatment, the human norovirus remaining in the medium was removed together with the medium, and the plate was washed thrice with a new medium. After washing, the aforementioned active ingredients were each added to the new medium to a concentration of 200 μM (addition groups), and no addition was performed with respect to the untreated (i.e., non-addition) group. Culturing was performed for 3 days. A portion (10 μL) of the medium was sampled from each well, and the samples were centrifuged at 10,000 g for 10 minutes, to thereby remove cell precipitates. The amount of human norovirus genomic RNA in the supernatant (1 μL) was determined through real-time RT-PCR.
In the test system, the effect of the anti-norovirus agent of the present invention provided after human norovirus infection was estimated on the basis of the following study. Specifically, among the fucose analog-treated 2D organoid cells, the living cells on growth day 3 (i.e., most of them were not infected with human norovirus, by virtue of the effect of the fucose analog) were subjected to a secondary infection operation (i.e., reinfection). The effect of the fucose analog on the reinfection was investigated.
In a specific procedure, the addition groups were prepared through the same procedure as employed in (a) above. The primarily infected cells were cultured in the presence of the fucose analog (200 μM) for 3 days, and the medium was removed from each culture system. After completion of washing, the cells were infected again with human norovirus, and then the virus was removed together with the medium. After completion of the next washing, a medium containing the fucose analog (200 μM) (represented by Reinf+2f-fuc or Reinf+6a-fuc), or a fucose analog-free medium (represented by Reinf−2f-fuc or Reinf−6a-fuc) was added thereto, and culturing was performed for further 3 days. Similar to the above case, the amount of human norovirus released to the supernatant was determined as an RNA titer. In the graphs, the two bars on the right side correspond to (Reinf+2f-fuc and Reinf+6a-fuc) or (Reinf−2f-fuc and Reinf−6a-fuc).

Data set [5] concerns human norovirus GII.4 (K2017 strain). The data set is described as follows: Human norovirus proliferation inhibition in 2D organoid after agent pre-treatment, GII.4 strain. The class given is cell-based. To be noted: GII.4, 3 days treatment before infection. The procedure:
Feces of a human norovirus-infected patent contains a large amount of infectious human norovirus. Thus, the feces of a human norovirus-infected patient is suspended in distilled water or the like to a final concentration of about 10%, to thereby prepare a “10% feces suspension.” The 10% feces suspension is about 10-fold diluted with an ENRA medium. The diluted suspension is added to each of the aforementioned wells having the 2D organoid (5 μL/well) and subjected to incubation for about 3 hours, to thereby proliferate human norovirus. As a result of verification, it has been confirmed that human norovirus proliferates to about 100,000 times the initial count through the culture system employing the 2D organoid.
In the Example, there were tested strains of human norovirus obtained from feces of human norovirus infection patients through the aforementioned procedure and stocked before the test. Specifically, three strains belonging to the genetic group 2 (GII) which accounts for 80 to 90% of the infected patients were selected as test targets. The isolated strain lineages included in GII (FIG. 1) were GII. 6 belonging to “Lineage 1,” GII. 3 belonging to “Lineage 2,” and GII.4 belonging to “Lineage 3” (GII. 6: K2017 strain, GII.3: TCH2004 strain, and GII. 4: K2017 strain).
The effect of 2fp-fucose treatment on proliferation of human norovirus was investigated for each lineage of norovirus. Specifically, after the 2fp-fucose treatment for 3 days, the 2D organoid was infected with each of the aforementioned norovirus strains GII.6, GII. 3, and GII. 4, and the viral proliferation amount was determined on days 3 and 6 after infection (FIG. 4).
Next, there was investigated the effect of the period of time (the number of days) of the 2fp-fucose treatment performed in advance on the anti-human norovirus action of the fucose analog. Specifically, the strain GII. 4 was treated with 2fp-fucose (several concentrations) for 1 to 4 days. […] However, in the group of 3-day treatment, the proliferation inhibition effect was observed by the 200 μM treatment with a certain range of variation in effectiveness. In the group of 4-day treatment, the proliferation inhibition effect was initially observed by 8 μM treatment, and the effect increased in a concentration-dependent manner to a 2fp-fucose concentration of 200 μM. […] Thus, the highest proliferation inhibition effect was obtained in the 2D organoid system through a 200 μM treatment for 3 to 4 days. The test was repeatedly performed three times. Error bars denote SEMs.
The 2D organoid was treated with an agent for 3 days. The tested agents were (a) 2fp-fucose (200 μM), (b) Sofosbuvir (1 μM), (c) Lamivudine (1 μM), (d) Ribavirin (400 μM), and (e) Mizoribine (100 μM). Subsequently, the thus-treated 2D organoid was infected with human norovirus (the norovirus strain GII.4), and the proliferation inhibition effect was determined (FIG. 6). The test was repeatedly performed three times. Error bars denote SEMs.

Take `C#C[C@@H]1OC(OC(C)=O)[C@@H](OC(C)=O)[C@H](OC(C)=O)[C@@H]1OC(C)=O` (stereo partly drawn) [6a-fucose, 1,2,3,4-tetra-O-acetyl-6,7-dideoxy-L-galacto-hept-6-ynopyranose]: in data set [1] (6a-fucose 8 μM), the “rise in RNA titer relative to the titer at the start of culturing” value is “about 10 times”. Also, the “rise in RNA titer” value in data set [1] (6a-fucose 40 μM, day 6) is “no substantial increase in RNA titer was observed”; in data set [1] (6a-fucose 200 μM), “completely inhibited”. Moreover, the “6a-fucose concentration at which the proliferation inhibition effect emerged” value in data set [1] (4 days pre-treatment, 6 days culturing after infection) is 1.6 µM. The “RNA titer relative to the titer at the start of culturing” value in data set [1] (each 6a-fucose treatment group (any concentration), culture day 6) is ≤ 100 times. The proliferation inhibition effect entry in data set [2] (6a-fucose 1.6 μM) is “not recognized”. For the same compound, the “human norovirus genome proliferation” value is reported as “actively suppressed” in data set [2] (6a-fucose 8 μM, culture days 3 and 6); “completely inhibited” in data set [2] (6a-fucose 40 μM). Moreover, the “cytotoxicity to cultured cells (2D organoid)” value in data set [3] is “no cytotoxicity attributed to addition of 6a-fucose was observed”. Further, in data set [4], the “rise in RNA titer (proliferation of human norovirus) in the addition group” value is “no rise in RNA titer”. Also, the “rise in RNA titer of the untreated group with respect to the administration system” value in data set [4] is ≥ 150 fold.

For `NC(=O)c1ncn([C@@H]2O[C@H](CO)[C@@H](O)[C@H]2O)c1O` [Mizoribine, reference compound], the “viral RNA titer from day 0 to day 7 (proliferation inhibition effect)” value in data set [5] (agent 100 μM) was “no effect of inhibiting proliferation of human norovirus”.

Turning to `NC(=O)c1ncn([C@@H]2O[C@H](CO)[C@@H](O)[C@H]2O)n1` [Ribavirin, reference compound], the “viral RNA titer from day 0 to day 7 (proliferation inhibition effect)” value in data set [5] (agent 400 μM) is given as “no effect of inhibiting proliferation of human norovirus”.

Consider `CC(C)OC(=O)[C@H](C)N[P@](=O)(OC[C@H]1O[C@@H](n2ccc(=O)[nH]c2=O)[C@](C)(F)[C@@H]1O)Oc1ccccc1` [Sofosbuvir, reference compound], for which, in data set [5] (agent 1 μM), the “viral RNA titer from day 0 to day 7 (proliferation inhibition effect)” value is “no effect of inhibiting proliferation of human norovirus”.
